Data from US7163941B2, “Pyrido[2,3-d]pyrimidin-7-carboxylic acid derivatives, their manufacture and use as pharmaceutical agents” (Hoffmann-La Roche Inc., priority 2003, dated 2007).

Tests used:
[1] = target: T1, Src (p60^c-src, partially purified) (Homo sapiens, UniProt P12931); assay: SRC-Inhibitor-Assay (time-resolved fluorescence), Src enzyme; assay type: biochemical; details: ATP 5 μM, peptide 10 μM, enzyme 2.5 U/ml, pre-incubation 15 min at 15° C.
T1 construct: purchased Upstate (UBI)
Description: (§1) The activity of the compounds according to this invention as inhibitors for the src-family tyrosine kinases was shown by using the following assay.
(§2) SRC-Inhibitor-Assay Parameters:
(§3) • Reaction mixture: • ATP 5 μM • Peptide (R+Ja133-Ro): 10 μM • Ja133-Ro 196 nM • Ro 9.8 μM • PT66 230 ng/ml • Assay buffer: 4 mM MgCl2 • 2 mM TCEP • 50 mM HEPES • 0,1% Tween 20 • pH 7.3 • Enzyme: 2.5 U/ml • Inhibitor: max. 25 μM • min. 0.42 nM Material: • Eu-labelled phosphotyrosine antibody: -for Lck Cisbio Mab PT66-K, • for Src EG&G Wallac PT66 Eu-W1024 (all commercially available). • Peptides: Ro: NH2-A-E-E-E-I-Y-G-E-F-E-A-K-K-K-K-CONH2 (SEQ ID NO: 1), and • Ja133-Ro: Ja133-G-Aminocaprylic acid-A-E-E-E-I-Y-G-E-F-E-A-K-K-K-K-CONH2 (SEQ ID NO: 2), wherein Ja133 is LightCycler-Red 640-N-hydroxy succinimide ester; • whereby both peptides were synthesized by an optimized solid phase peptide synthesis protocol (Merrifield, Fed. Proc. Fed. Amer. Soc. Exp. Biol. 21 (1962) 412) on a Zinsser SMP350 peptide synthesizer. Shortly, the peptide was assembled on 160 mg (22.8 μmol scale) of a Rink-Linker modified polystyrene solid phase by repeatedly conjugating an twenty fold excess of aminoacids each protected by temporary piperidine labile Fmoc- and permanent acid labile tert-Bu-, BOC- and Otert-Bu-groups depending on the side chain function. The substrate sequence AEEEIYGEFEAKKKK (SEQ ID NO: 1) was N-terminal additionally mounted with the spacer amino acids Aminocaprylic acid and Glycin. After cleavage of the N-terminal temporary protecting group the still attached and protected peptide was labeled with a 1.5 fold amount of LightCycler-Red 640-N-hydroxy succinimide ester (purchased by Roche Diagnostics GmbH) and triethylamine. After 3 hrs. the resin was washed with Dimethylformamide and Isopropanol until the eluates of the blue resin got colo-rless. […] The substrate was finally isolated by a preparative reverse phase HPLC purification. The purification yielded 12.2 mg RP-HPLC single peak pure blue material (lyophilisate). The identity was proven by MALDI mass spectroscopy [2720.0]. • Enzymes: Upstate Lck (p56^lck, active), Upstate Src (p60^c-src, partially purified) were purchased from UBI. • Time-resolved Fluorescence Assay: Reader: Perkin Elmer, Wallac Viktor 1420-040 multilabel counter; Liquid handling system: Beckman Coulter, Biomek 2000. ATP, Tween 20, HEPES were purchased from Roche Molecular Biochemicals, MgCl2 and MnCl2 were purchased from Merck Eurolab, TCEP was purchased from Pierce, 384 Well low volume fluorescence plates was purchased from Falcon. Assay Description:
(§4) At first the enzyme is pre-incubated for 15 min. at 15° C. in aqueous solution with corresponding amounts of inhibitors according to this invention. Then the phosphorylation reaction is started by adding a reaction mixture, containing ATP, Peptide and PT66, and subsequent shaking. The proceeding of this reaction is immediately monitored using time resolved fluorescence spectroscopy in a suitable well plate reader.
(§5) The IC50-values can be obtained from the reaction rates by using a non-linear curve fit (Excelfit).

Lck (p56^lck, active) = target: T2, Lck (p56^lck, active) (Homo sapiens, UniProt P06239); assay: SRC-Inhibitor-Assay (time-resolved fluorescence), Lck enzyme; assay type: biochemical; details: ATP 5 μM, peptide 10 μM, enzyme 2.5 U/ml, pre-incubation 15 min at 15° C.
T2 construct: purchased Upstate (UBI)
T2 sequence (P06239 whole entry, species assumed): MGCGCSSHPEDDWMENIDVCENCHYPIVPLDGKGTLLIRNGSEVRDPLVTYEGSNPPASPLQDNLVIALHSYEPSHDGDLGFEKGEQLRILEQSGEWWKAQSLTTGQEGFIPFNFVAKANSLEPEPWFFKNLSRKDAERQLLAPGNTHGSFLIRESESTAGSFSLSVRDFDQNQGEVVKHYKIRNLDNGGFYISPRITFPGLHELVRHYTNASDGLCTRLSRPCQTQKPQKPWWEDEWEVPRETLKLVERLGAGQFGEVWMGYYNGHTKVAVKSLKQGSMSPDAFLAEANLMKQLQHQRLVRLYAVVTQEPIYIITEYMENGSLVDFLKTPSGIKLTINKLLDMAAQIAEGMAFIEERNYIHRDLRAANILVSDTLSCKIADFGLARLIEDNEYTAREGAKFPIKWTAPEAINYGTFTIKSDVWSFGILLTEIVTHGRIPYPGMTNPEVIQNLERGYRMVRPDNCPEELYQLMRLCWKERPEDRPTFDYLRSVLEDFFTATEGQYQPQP
Description: as §1, §2, §3, §4, §5

T1 sequence (P12931 whole entry, species assumed): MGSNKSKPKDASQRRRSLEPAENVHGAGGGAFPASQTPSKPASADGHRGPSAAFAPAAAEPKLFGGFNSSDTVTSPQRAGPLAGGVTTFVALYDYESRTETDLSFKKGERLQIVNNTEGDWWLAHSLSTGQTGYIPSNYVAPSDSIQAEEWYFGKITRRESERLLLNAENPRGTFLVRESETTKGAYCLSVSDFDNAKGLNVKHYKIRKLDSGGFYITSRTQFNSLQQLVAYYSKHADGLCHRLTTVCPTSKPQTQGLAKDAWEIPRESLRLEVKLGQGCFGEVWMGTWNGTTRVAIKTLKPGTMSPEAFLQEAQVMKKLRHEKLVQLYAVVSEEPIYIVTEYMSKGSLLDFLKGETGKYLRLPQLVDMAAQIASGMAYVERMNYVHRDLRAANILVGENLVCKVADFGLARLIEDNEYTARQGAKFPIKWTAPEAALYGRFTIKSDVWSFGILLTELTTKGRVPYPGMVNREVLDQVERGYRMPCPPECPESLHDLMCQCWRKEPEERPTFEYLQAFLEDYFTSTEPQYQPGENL

Compound	IC50 [1]	IC50 (Lck (p56^lck, active))
CC(CN(C)C)NC(=O)c1nc2nc(Nc3ccc(F)cc3)ncc2cc1-c1ccccc1Br (stereo not shown) [Example 3-23, 6-(2-Bromo-phenyl)-2-(4-fluoro-phenylamino)-pyrido[2,3-d]pyrimidine-7-carboxylic acid (2-dimethylamino-1-methyl-ethyl)-amide]	195 nM	573 nM
CNC(=O)CNC(=O)c1nc2nc(Nc3ccc(F)cc3)ncc2cc1-c1ccccc1Br [Example 3-24, 6-(2-Bromo-phenyl)-2-(4-fluoro-phenylamino)-pyrido[2,3-d]pyrimidine-7-carboxylic acid methylcarbamoylmethyl-amide]	130 nM	206 nM
O=C(NCCN1CCNC1=O)c1nc2nc(Nc3ccc(F)cc3)ncc2cc1-c1ccccc1Br [Example 3-25, 6-(2-Bromo-phenyl)-2-(4-fluoro-phenylamino)-pyrido[2,3-d]pyrimidine-7-carboxylic acid[2-(2-oxo-imidazolidin-1-yl)-ethyl]-amide]	157 nM	370 nM
O=C(NCCCN1CCCC1=O)c1nc2nc(Nc3ccc(F)cc3)ncc2cc1-c1ccccc1Br [Example 3-26, 6-(2-Bromo-phenyl)-2-(4-fluoro-phenylamino)-pyrido[2,3-d]pyrimidine-7-carboxylic acid [3-(2-oxo-pyrrolidin-1-yl)-propyl]-amide]	197 nM	275 nM
CC(CNC(=O)c1nc2nc(Nc3ccc(F)cc3)ncc2cc1-c1ccccc1Br)N(C)C (stereo not shown) [Example 3-27, 6-(2-Bromo-phenyl)-2-(4-fluoro-phenylamino)-pyrido[2,3-d]pyrimidine-7-carboxylic acid (2-dimethylamino-propyl)-amide]	23.9 nM	129 nM
O=C(N[C@H]1CCNC1)c1nc2nc(Nc3ccc(F)cc3)ncc2cc1-c1ccccc1Br [Example 3-28, (S)-6-(2-Bromo-phenyl)-2-(4-fluoro-phenylamino)-pyrido[2,3-d]pyrimidine-7-carboxylic acid pyrrolidin-3-ylamide]	19.3 nM	62.7 nM
O=C(N[C@@H]1CCNC1)c1nc2nc(Nc3ccc(F)cc3)ncc2cc1-c1ccccc1Br [Example 3-29, (R)-6-(2-Bromo-phenyl)-2-(4-fluoro-phenylamino)-pyrido[2,3-d]pyrimidine-7-carboxylic acid pyrrolidin-3-ylamide]	103 nM	429 nM
CN(C)C(=O)CNC(=O)c1nc2nc(Nc3ccc(F)cc3)ncc2cc1-c1ccccc1Br [Example 3-30, 6-(2-Bromo-phenyl)-2-(4-fluoro-phenylamino)-pyrido[2,3-d]pyrimidine-7-carboxylic acid dimethylcarbamoylmethyl-amide]	247 nM	151 nM
CNCCCNC(=O)c1nc2nc(Nc3ccc(F)cc3)ncc2cc1-c1ccccc1Br [Example 3-31, 6-(2-Bromo-phenyl)-2-(4-fluoro-phenylamino)-pyrido[2,3-d]pyrimidine-7-carboxylic acid (3-methylamino-propyl)-amide]	42.8 nM	100 nM
O=C(NCCCN1CCOCC1)c1nc2nc(Nc3ccc(F)cc3)ncc2cc1-c1ccccc1Br [Example 3-32, 6-(2-Bromo-phenyl)-2-(4-fluoro-phenylamino)-pyrido[2,3-d]pyrimidine-7-carboxylic acid (3-morpholin-4-yl-propyl)-amide]	117 nM	195 nM
CN1CCCC1CCNC(=O)c1nc2nc(Nc3ccc(F)cc3)ncc2cc1-c1ccccc1Br (stereo not shown) [Example 3-33, 6-(2-Bromo-phenyl)-2-(4-fluoro-phenylamino)-pyrido[2,3-d]pyrimidine-7-carboxylic acid [2-(1-methyl-pyrrolidin-2-yl)-ethyl]-amide]	44.7 nM	96.9 nM
O=C(N[C@@H]1CCCNC1)c1nc2nc(Nc3ccc(F)cc3)ncc2cc1-c1ccccc1Br [Example 3-34, (R)-6-(2-Bromo-phenyl)-2-(4-fluoro-phenylamino)-pyrido[2,3-d]pyrimidine-7-carboxylic acid piperidin-3-ylamide]	97.9 nM	127 nM
O=C(NC1CN2CCC1CC2)c1nc2nc(Nc3ccc(F)cc3)ncc2cc1-c1ccccc1Br (stereo not shown) [Example 3-35, 6-(2-Bromo-phenyl)-2-(4-fluoro-phenylamino)-pyrido[2,3-d]pyrimidine-7-carboxylic acid (1-aza-bicyclo[2.2.2]oct-3-yl)-amide]	73.1 nM	251 nM
O=C(NCCNc1ccccn1)c1nc2nc(Nc3ccc(F)cc3)ncc2cc1-c1ccccc1Br [Example 3-36, 6-(2-Bromo-phenyl)-2-(4-fluoro-phenylamino)-pyrido[2,3-d]pyrimidine-7-carboxylic acid [2-(pyridin-2-ylamino)-ethyl]-amide]	165 nM	256 nM
NS(=O)(=O)CCNC(=O)c1nc2nc(Nc3ccc(F)cc3)ncc2cc1-c1ccccc1Br [Example 3-37, 6-(2-Bromo-phenyl)-2-(4-fluoro-phenylamino)-pyrido[2,3-d]pyrimidine-7-carboxylic acid (2-sulfamoyl-ethyl)-amide]	21 nM	189 nM
O=C(NCCCO)c1nc2nc(Nc3ccc(F)cc3)ncc2cc1-c1ccccc1Br [Example 3-38, 6-(2-Bromo-phenyl)-2-(4-fluoro-phenylamino)-pyrido[2,3-d]pyrimidine-7-carboxylic acid (3-hydroxy-propyl)-amide]	91.8 nM	456 nM
O=C(NCCc1cnc[nH]1)c1nc2nc(Nc3ccc(F)cc3)ncc2cc1-c1ccccc1Br [Example 3-39, 6-(2-Bromo-phenyl)-2-(4-fluoro-phenylamino)-pyrido[2,3-d]pyrimidine-7-carboxylic acid [2-(3H-imidazol-4-yl)-ethyl]-amide]	24.3 nM	114 nM
C[S+]([O-])CCNC(=O)c1nc2nc(Nc3ccc(F)cc3)ncc2cc1-c1ccccc1Br (stereo not shown) [Example 3-40, 6-(2-Bromo-phenyl)-2-(4-fluoro-phenylamino)-pyrido[2,3-d]pyrimidine-7-carboxylic acid (2-methanesulfinyl-ethyl)-amide]	149 nM	584 nM
Cc1cc(CNC(=O)c2nc3nc(Nc4ccc(F)cc4)ncc3cc2-c2ccccc2Br)nn1C [Example 3-41, 6-(2-Bromo-phenyl)-2-(4-fluoro-phenylamino)-pyrido[2,3-d]pyrimidine-7-carboxylic acid (1,5-dimethyl-1H-pyrazol-3-ylmethyl)-amide]	26 nM	126 nM
NC(=O)c1c[nH]nc1NC(=O)c1nc2nc(Nc3ccc(F)cc3)ncc2cc1-c1ccccc1Br [Example 3-42, 6-(2-Bromo-phenyl)-2-(4-fluoro-phenylamino)-pyrido[2,3-d]pyrimidine-7-carboxylic acid (4-carbamoyl-1H-pyrazol-3-yl)-amide]	56.3 nM	694 nM
O=C(NCC[S+]([O-])CCO)c1nc2nc(Nc3ccc(F)cc3)ncc2cc1-c1ccccc1Br (stereo not shown) [Example 3-43, 6-(2-Bromo-phenyl)-2-(4-fluoro-phenylamino)-pyrido[2,3-d]pyrimidine-7-carboxylic acid [2-(2-hydroxy-ethanesulfinyl)-ethyl]-amide]	129 nM	809 nM
CNCCNC(=O)c1nc2nc(Nc3ccc(N4CCOCC4)cc3)ncc2cc1-c1ccccc1Br [Example 3-44, 6-(2-Bromo-phenyl)-2-(4-morpholin-4-yl-phenylamino)-pyrido[2,3-d]pyrimidine-7-carboxylic acid (2-methylamino-ethyl)-amide]	1 nM	2.5 nM
O=C(NCCO)c1nc2nc(Nc3ccc(F)cc3)ncc2cc1-c1ccccc1Br [Example 3-45, 6-(2-Bromo-phenyl)-2-(4-fluoro-phenylamino)-pyrido[2,3-d]pyrimidine-7-carboxylic acid (2-hydroxy-ethyl)-amide]	21.5 nM	155 nM
